Read-outs that look alike come from different tables or passages of the source.
What was measured:
NF-κB [1] = test: TNF-α-induced signalling activity in HEK293-NF-κB-luciferase reporter cell line; assay type: cell-based; conditions: HEK-293 cells; for IC50: TNF-alpha 40 ng/ml, 4 h, luciferase; for inhibition of NF-κB expression: TNF-alpha, 0.05 to 5 uM, FIG. 3
Experimental: Ten thousand hygromycin B-resistant HEK-293 cells were seeded per well in a 96-well plate (Corning, New-York) and allowed to adhere overnight. The next morning, the culture medium (DMEM+10% FBS) was removed and […] of fresh medium (DMEM without FBS) added to each well. […] Human recombinant TNF-alpha (R&D Systems, Minneapolis) was added one hour later at a final concentration of 40 ng/ml. Four hours later, the HEK-293 cells were rinsed with 1×PBS prior to the luciferase assay, which was performed according to the manufacturer's instructions (Bright-Glo™ luciferase assay system, Promega, Wis.).

NF-κB [2] = test: NF-κB luciferase reporter activity in BV2 microglial cells stimulated with LPS; assay type: cell-based; conditions: BV-2 cells, LPS 100 ng/ml, 4 h
Experimental: An NF-κB specific luciferase reporter system in BV-2 microglial cells was first established. This cell line was generated by stable transfection of BV-2 cells with stable insertion of a luciferase reporter 4 kBwt luciferase plasmid and subsequent selection with hygomycin. LPS was used to stimulate NF-κB activity in these cells. Twenty-five thousand hygromycin B-resistant BV-2 cells were seeded per well in 24-well dishes and allowed to adhere overnight. The next morning, the culture medium (DMEM+10% FBS) was removed and 1 ml of fresh medium (DMEM without FBS) added to each well. The stock solutions of withanolides (2 mg/ml in DMSO) were diluted in 1×PBS to various concentration (0.05 to 5 uM) and added to the wells. LPS was added one hour later at a final concentration of 100 ng/ml. Four hours later, the BV-2 cells were rinsed with 1×PBS prior to proceeding with the luciferase assay that was performed according to the manufacturer's instructions (Bright-Glo™ luciferase assay system, Promega, Wis.).

[3] = system: LPS-induced astrogliosis (GFAP promoter luciferase reporter); conditions: GFAP-luc mice, LPS inhaled, 4 mg/kg i.p. 2 h after LPS and 2 h before imaging, imaging 24 h after LPS
Experimental: In vivo bioluminescence imaging was performed to asses the inflammatory response in the cranial region.
GFAP-luc transgenic mice were used to test in vivo the efficacy of these analogs. In these transgenic mice, the firefly luciferase reporter gene is under the control of a 12 kb DNA fragment of the glial fibrillary acidic protein (GFAP) promoter (Caliper Life Sciences). The luciferase reporter is inducible following LPS administration resulting in GFAP transcriptional regulation. If the administration of test compounds following the injection of LPS decreases LPS-induced astrogliosis in GFAP-luc mice, this is visualized as a reduced bioluminescent signal upon imaging.
Transgenic mice under anesthesia were induced to inhale either 5 ul of a solution of LPS (1 mg/ml in 0.9% saline) or a solution of 0.9% saline alone followed 2 h later by an intraperitoneal (i.p.) injection of 0.5 ml of the test compounds (10% dilution in 0.9% saline) at a final concentration of 4 mg/kg. The following day, 2 h before imaging (24 h after the administration of the LPS solution), the transgenic mice were again injected with the withanolides as previously. Twenty minutes prior to imaging, the mice received an i.p. injection of the luciferase substrate D-luciferin (150 mg/kg). D-luciferin was dissolved in 0.9% saline to a final concentration of 20 mg/ml. […]

[4] = system: TDP-43 A315T transgenic mice; conditions: 5 mg/kg i.p. every 2 days for 15 weeks
Experimental: The TDP-43 A315T mouse model for ALS is fully described in Swamp, V et al., Brain 134: 2610-2626 2011.
Male and female TDP-43 A315T mice of approximately 9 months and 25-55 gm were included in the study, and were randomly assigned to three groups, as follows:
Group 2 (n=7) (the control group) received vehicle (2% polysorbate [Tween-80]/5% DMSO/93% saline); and
The injection volume at 12.5 mL/kg was based on the body weight of each individual animal at the start of the study.
Accelerating rotarod (as described in Gros-Louis, F., et al. Hum Mol Genet 17, 2691-2702 (2008)) was performed prior to first dosing and at weekly interval during the study. Testing was performed at 4-rpm speed with 0.25 rpm/s acceleration. Each mouse was subjected to three trials per session. The number of seconds each mouse remained on the rotarod apparatus for each trial was recorded.

C57BL/6 female mice = conditions: i.p.; for clinical observations post-dosing: 65 mg/kg; for safety profile compared with WA: 20 to 65 mg/kg

| IC50 (NF-κB [1]; Homo sapiens, HEK293) | IC50 (NF-κB [2]; Mus musculus) | Compound | IC50 (NF-κB [1]) | inhibition of NF-κB expression (NF-κB [1]) | IC50 (NF-κB [2]) | bioluminescent signal in brain (astrogliosis) compared to saline-DMSO [3] | rotarod performance over the 15 week period [4] | mortality (C57BL/6 female mice; 55 mg/kg) | clinical observations post-dosing (C57BL/6 female mice) | mortality (C57BL/6 female mice; 65 mg/kg (highest dose tested)) | safety profile compared with WA (C57BL/6 female mice) |
| --- | --- | --- | --- | --- | --- | --- | --- | --- | --- | --- | --- |
| – | – | COCC1=C(C)C[C@H]([C@@H](C)[C@H]2CC[C@H]3[C@@H]4C[C@H]5O[C@]56[C@@H](OC)C=CC(=O)[C@]6(C)[C@H]4CC[C@]23C)OC1=O [4,27-O-dimethyl WA, 4,27-O-dimethylwithaferin A] | 450 nM | inhibited NF-κB expression | 800 nM | – | – | – | – | – | – |
| – | – | CO[C@H]1C=CC(=O)[C@]2(C)[C@H]3CC[C@]4(C)[C@@H]([C@H](C)[C@H]5CC(C)=C(CO)C(=O)O5)CC[C@H]4[C@@H]3C[C@H]3O[C@]132 [4-O-methyl WA, 4-O-methylwithaferin A] | 320 nM | inhibited NF-κB expression | 970 nM | significant decrease | improved | no mortality | some weakness and a decrease in activity | no mortality | much better safety profile than WA |
| 340 nM | 500 nM | CC1=C(CO)C(=O)O[C@@H]([C@@H](C)[C@H]2CC[C@H]3[C@@H]4C[C@H]5O[C@]56[C@@H](O)C=CC(=O)[C@]6(C)[C@H]4CC[C@]23C)C1 [WA, Withaferin A, reference compound] | – | – | – | – | – | – | – | – | – |
| – | – | COCC1=C(C)C[C@H]([C@@H](C)[C@H]2CC[C@H]3[C@@H]4C[C@H]5O[C@]56[C@@H](O)C=CC(=O)[C@]6(C)[C@H]4CC[C@]23C)OC1=O [27-O-methyl WA, 27-O-methylwithaferin A] | 260 nM | inhibited NF-κB expression | 710 nM | significant decrease | improved | no mortality | some weakness and a decrease in activity | no mortality | much better safety profile than WA |

Reference: patent publication US11472832B2, “Withanolides useful for the treatment of neurodegenerative diseases” (priority 2013, dated 2022)
